Tests used:
DHR23α = biological target: T1, DHR23α (Drosophila melanogaster, UniProt P34021); assay: DHR23α transactivation of EcRE (Ec4M-77CO) CAT reporter in transfected human 293 cells; assay type: cell-based; conditions: pRSV.DHR23α + pEc4M-77CO (EcRE) CAT reporter, ligand 1 µM, 48 hrs
T1 construct: To isolate the full-length DHR23α clones; expressed in transfected cells; host or cells: human 293 cells
T1 sequence (P34021 1-878): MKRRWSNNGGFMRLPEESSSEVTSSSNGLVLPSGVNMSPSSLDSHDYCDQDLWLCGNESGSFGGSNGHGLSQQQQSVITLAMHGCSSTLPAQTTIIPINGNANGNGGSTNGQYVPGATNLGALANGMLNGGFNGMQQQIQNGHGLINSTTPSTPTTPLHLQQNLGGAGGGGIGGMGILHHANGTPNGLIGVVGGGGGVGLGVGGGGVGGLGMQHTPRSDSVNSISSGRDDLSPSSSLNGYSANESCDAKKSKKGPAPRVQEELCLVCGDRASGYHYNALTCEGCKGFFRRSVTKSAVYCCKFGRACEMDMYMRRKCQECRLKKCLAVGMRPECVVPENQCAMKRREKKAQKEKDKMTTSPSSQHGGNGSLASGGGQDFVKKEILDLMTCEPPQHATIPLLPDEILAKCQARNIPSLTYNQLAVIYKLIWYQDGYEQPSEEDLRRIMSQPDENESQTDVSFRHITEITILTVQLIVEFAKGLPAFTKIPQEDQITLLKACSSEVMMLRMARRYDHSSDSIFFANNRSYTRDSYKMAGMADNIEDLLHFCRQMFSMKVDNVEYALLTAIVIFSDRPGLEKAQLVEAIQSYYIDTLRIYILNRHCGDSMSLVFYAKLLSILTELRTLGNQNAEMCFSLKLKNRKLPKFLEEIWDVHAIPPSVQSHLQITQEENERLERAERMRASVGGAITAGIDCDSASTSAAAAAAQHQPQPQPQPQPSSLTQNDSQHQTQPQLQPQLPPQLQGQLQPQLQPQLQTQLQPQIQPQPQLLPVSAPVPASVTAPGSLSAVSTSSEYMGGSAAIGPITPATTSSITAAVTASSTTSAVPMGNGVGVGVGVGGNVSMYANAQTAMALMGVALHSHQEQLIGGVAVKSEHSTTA
T1 sequence (P19793 1-462 partner): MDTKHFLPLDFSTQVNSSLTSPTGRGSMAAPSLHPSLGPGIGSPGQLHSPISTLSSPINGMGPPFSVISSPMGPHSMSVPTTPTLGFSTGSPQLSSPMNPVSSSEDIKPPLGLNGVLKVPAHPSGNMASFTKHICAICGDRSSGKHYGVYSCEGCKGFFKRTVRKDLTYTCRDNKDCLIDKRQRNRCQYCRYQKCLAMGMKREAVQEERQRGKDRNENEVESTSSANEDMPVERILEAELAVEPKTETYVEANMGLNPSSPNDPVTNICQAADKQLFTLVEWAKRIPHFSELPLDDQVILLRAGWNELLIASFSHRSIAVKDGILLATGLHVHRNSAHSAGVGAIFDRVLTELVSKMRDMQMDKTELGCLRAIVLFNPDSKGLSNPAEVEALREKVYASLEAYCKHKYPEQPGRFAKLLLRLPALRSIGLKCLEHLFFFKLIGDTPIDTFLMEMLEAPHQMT
Experimental: Figure. 2. […] Human 293 cells were cotransfected with 2.5 µg of the expression plasmid pRSV.DHR23α or the parental expression plasmid pRSV (Control) and 0.5 µgs of the reporter plasmid pEc4M-77CO (EcRE) or pG4M-77CO (GRE). As a control for transfection efficiency, 0.5 µgs of the control plasmid pRSV.hGH was included in the transfection mixture. After transfection, cells were treated without (-) or with alpha-ecdysone (alpha), 20-OH ecdysone (20-OH), polypodine B (ppB), ponasterone A (ponA) or muristeroine A (murA). CAT extracts were harvested 48 hrs after transfection and assayed. The values were normalized to the expression of hGH and the average values of three independent experiments are shown. The "fold induction" represents the level of expression of the reporter gene in cells incubated with hormone divided by the expression of that reporter gene in extracts from cells incubated in the absence of added ligand.
I determined whether DHR23α could function in mammalian cells treated with ecdysteroids to enhance the transcription of a reporter gene containing EcREs linked to the murine mammary tumor virus (MTV) promoter and chloramphenicol acetyltransferase (CAT) gene. Human 293 cells were cotransfected with an RSV-based expression vector that encodes DHR23a and the reporter gene Ec4M-77CO that contains 4 copies of an ecdysone response element (EcRE) from the Drosophila HSP27 promoter (G. Riddihough and H. R. B. Pelham, EMBO J. 6, 3729 [1987]) linked to an MTV promoter-CAT construct.
Human 293 cells were cotransfected with 2.5 µg of the expression plasmid pRSV.DHR23α or the parental expression plasmid pRSV (Control) and 0.5 µgs of the reporter plasmid pEc4M-77CO (EcRE) or pG4M-77CO (GRE). As a control for transfection efficiency, 0.5 µgs of the control plasmid pRSV.hGH was included in the transfection mixture. After transfection, cells were treated without (-) or with alpha-ecdysone (alpha), 20-OH ecdysone (20-OH), polypodine B (ppB), ponasterone A (ponA) or muristeroine A (murA). All candidate ligands were added at a concentration of 1 µM. CAT extracts were harvested 48 hrs after transfection, and assays were performed as described (D. R. Cavener, Nucl. Acids Res. 15, 1353-1361 [1987]). The values were normalized to the expression of hGH and the average values of three independent experiments are shown in Figure 2. The "fold induction" represents the level of expression of the reporter gene in cells incubated with hormone divided by the expression of that reporter gene in extracts from cells incubated in the absence of added ligand.
Cells were transfected with the DHR23α expression vector and Ec4M-77CO reporter gene and treated without (-) or with the following hormones (1 µM): muristerone A (mur A) dexamethasone (Dex) 17β-estradiol (E2), aldosterone (Aldo), corticosterone (Cort) hydroxycorticosterone (OH-Cort) thyroid hormone (T3), promegestone (Promeg) or 1,25-dihydroxy vitamin D3 (VD3). Reporter gene activity was determined as described above for Figure 2.

drosophila cell lines = conditions: cited from earlier work
GGEc = biological target: T2, GGEc (Drosophila melanogaster, UniProt P34021); assay: Induction of GRE reporter G4M-77CO by chimeric receptor GGEc in 293 cells; assay type: cell-based; conditions: GRE reporter G4M-77CO
T2 construct: expressed in transfected cells; host or cells: 293 cells
T2 sequence (P34021 329-878): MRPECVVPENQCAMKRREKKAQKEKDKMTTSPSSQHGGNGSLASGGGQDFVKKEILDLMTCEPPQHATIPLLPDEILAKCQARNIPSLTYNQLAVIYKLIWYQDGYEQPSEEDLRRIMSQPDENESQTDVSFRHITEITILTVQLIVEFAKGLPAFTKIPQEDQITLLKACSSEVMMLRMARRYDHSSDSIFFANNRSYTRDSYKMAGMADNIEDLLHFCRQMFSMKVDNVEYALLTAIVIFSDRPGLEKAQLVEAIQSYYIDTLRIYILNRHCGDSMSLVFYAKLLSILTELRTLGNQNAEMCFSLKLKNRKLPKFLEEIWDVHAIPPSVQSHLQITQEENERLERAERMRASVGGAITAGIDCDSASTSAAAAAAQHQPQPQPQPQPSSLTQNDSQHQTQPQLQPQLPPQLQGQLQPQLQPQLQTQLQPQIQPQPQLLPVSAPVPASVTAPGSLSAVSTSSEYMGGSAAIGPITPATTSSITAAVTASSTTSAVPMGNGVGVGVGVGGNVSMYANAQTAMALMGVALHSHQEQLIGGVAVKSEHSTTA
Description: I choose to determine if the ligand-binding domain of DHR23a could be used to regulate the DNA-binding and transactivation domains of the mammalian glucocorticoid receptor for the following reasons. First, in contrast to DHR23α, high affinity DNA-binding sites for the GR have been identified (M. Beato, Cell 56, 335 [1989]) and reporter genes containing these sites are very strongly regulated. Thus, the sensitivity of our assays could be increased. Secondly, these chimeric receptors could be utilized to selectively regulate endogenous genes in mammalian cells in response to ecdysteroids. I constructed a chimeric gene, GGEc, in which the sequences encoding the ligand-binding domain of the GR were replaced with that of DHR23α (Fig. 4A). […] However, expression of the GRE-containing reporter gene was induced more than 700 fold by GGEc in muristerone-treated cells.

GGG = biological target: T3, GGG (Rattus norvegicus, UniProt P06536); assay: Induction of GRE reporter G4M-77CO by GGG (glucocorticoid receptor) in 293 cells; conditions: normalized to hGH, SD in parentheses, 2880 min
T3 sequence (P06536 1-795): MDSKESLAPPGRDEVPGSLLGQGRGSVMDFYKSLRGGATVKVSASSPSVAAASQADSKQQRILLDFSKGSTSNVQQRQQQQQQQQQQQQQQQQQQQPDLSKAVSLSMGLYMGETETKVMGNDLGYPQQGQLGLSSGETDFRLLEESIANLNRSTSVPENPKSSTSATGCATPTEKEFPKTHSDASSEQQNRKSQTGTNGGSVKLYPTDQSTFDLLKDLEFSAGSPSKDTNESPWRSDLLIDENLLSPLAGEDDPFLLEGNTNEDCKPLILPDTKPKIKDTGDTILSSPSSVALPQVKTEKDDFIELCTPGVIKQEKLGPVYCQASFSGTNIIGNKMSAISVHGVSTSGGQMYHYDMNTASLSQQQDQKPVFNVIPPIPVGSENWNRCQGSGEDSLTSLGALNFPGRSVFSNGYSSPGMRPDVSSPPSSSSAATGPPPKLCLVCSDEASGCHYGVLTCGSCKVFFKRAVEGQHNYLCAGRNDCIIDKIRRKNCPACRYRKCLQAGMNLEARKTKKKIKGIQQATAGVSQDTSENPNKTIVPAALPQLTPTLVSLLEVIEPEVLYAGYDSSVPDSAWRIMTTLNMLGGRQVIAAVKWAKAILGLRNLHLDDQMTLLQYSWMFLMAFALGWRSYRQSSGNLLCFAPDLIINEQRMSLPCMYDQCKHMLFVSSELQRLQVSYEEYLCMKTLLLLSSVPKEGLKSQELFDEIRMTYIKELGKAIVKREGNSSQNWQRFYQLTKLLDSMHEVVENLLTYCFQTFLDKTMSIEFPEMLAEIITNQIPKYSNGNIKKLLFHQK

| Structure (SMILES) | agonist for DHR23α in mammalian cells (expression of the reporter gene) (DHR23α) | agonist for DHR23α in mammalian cells (expression of the reporter gene) (DHR23α; 1 µM) | agonist activity in drosophila cell lines (drosophila cell lines) | relative efficacies of ecdysteroids as agonists for the chimeric receptor (GGEc) | fold induction (GGG) [fold] |
| --- | --- | --- | --- | --- | --- |
| CC(C)(O)CC[C@@H](O)[C@](C)(O)[C@H]1CC[C@@]2(O)C3=CC(=O)[C@@H]4C[C@@H](O)[C@@H](O)C[C@]4(C)[C@H]3CC[C@]12C [20-OH ecdysone] | Neither α-ecdysone, 20-OH ecdysone, nor polypodine B acted as agonists | inactive | agonists | neither α-ecdysone, 20-OH ecdysone or polypodine B acted as agonists |  |
| C[C@@H]1C[C@H]2[C@@H]3CCC4=CC(=O)C=C[C@]4(C)[C@@]3(F)[C@@H](O)C[C@]2(C)[C@@]1(O)C(=O)CO [dexamethasone] |  |  |  |  | 347 |
| CC(C)(O)CC[C@@H](O)[C@](C)(O)[C@H]1CC[C@@]2(O)C3=CC(=O)[C@]4(O)C[C@@H](O)[C@@H](O)C[C@]4(C)[C@H]3CC[C@]12C [polypodine B] | Neither α-ecdysone, 20-OH ecdysone, nor polypodine B acted as agonists |  | agonists | neither α-ecdysone, 20-OH ecdysone or polypodine B acted as agonists |  |
| CC(C)CC[C@@H](O)[C@](C)(O)[C@H]1CC[C@@]2(O)C3=CC(=O)[C@@H]4C[C@@H](O)[C@@H](O)C[C@]4(C)[C@H]3CC[C@]12C [ponasterone A] | weak agonist |  |  | weak |  |
| C[C@H]([C@H](O)CCC(C)(C)O)[C@H]1CC[C@@]2(O)C3=CC(=O)[C@@H]4C[C@@H](O)[C@@H](O)C[C@]4(C)[C@H]3CC[C@]12C [α-ecdysone] | Neither α-ecdysone, 20-OH ecdysone, nor polypodine B acted as agonists |  |  | neither α-ecdysone, 20-OH ecdysone or polypodine B acted as agonists |  |
